In brackets after ≈: the same amount, converted by molar mass. Like-named read-outs stand apart in the source and are kept apart here.
Experiments:
[1] = Particle size distribution and surface area; type: physicochemical
Method: Micronized darunavir dimethylsulfoxide solvate was prepared from the non-micronized form by milling using a jet mill (Super fine vortex Mill™).

[2] = water at 20° C.; cited from earlier work
[3] = Hygroscopicity (DVS) from 0% to 90%; type: physicochemical; details: for weight gain from 0% to 90% (DVS) / hygroscopicity (in words): 25° C.; for hygroscopicity (in words): DVS 0% to 90%
Method: About 10 mg of the tetrahydrofuran solvate form of the present invention were used to test the hygroscopicity (DVS) from 0% to 90% according to the details on Table 2.
About 10 mg of the dimethylsulfoxide solvate form of the present invention were used to test the hygroscopicity (DVS) from 0% to 90% according to the details on Table 2 hereinabove.
The hygroscopicities of the Darunavir forms of the present invention were compared to the hygroscopicity of Darunavir ethanolate API.

Bulk density = type: physicochemical
[4] = Aqueous solubility in buffers, 24 h shaking at 25° C., HPLC; type: physicochemical; details: 24 hours at 25° C.; for solubility at 24 h: 25 °C, thermodynamic from solid
Method: The aqueous solubility of the tetrahydrofuran solvate of darunavir of the present invention was measured. Specifically, about 10 mg of the compound was accurately weighed into a 4 ml clear glass vial followed by the addition of 2.5 ml buffer (at different pH) to the vial. The vial was then mounted on a Thermomixer and was kept shaking for 24 hours at 25° C. The solution was filtered through 0.45 μm PTFE filter. The pH value and concentration of the filtrate were checked by pH meter and HPLC (Agilent 1200; Column: Zorbax SB C18, 4.6 mm×150 mm ID×5 μm; Profile of mobile phase: t=0 water 70, ACN 30; t=15,20 water 0, ACN 100; Column temperature 30° C.; Mobile rate 1.0 mL/min; Detector wavelength 265 nm; The typical retention time of Darunavir is 7.7 min), respectively.
(§1) The aqueous solubility of the dimethylsulfoxide solvate of darunavir of the present invention was measured. Specifically, about 10 mg of the compound was accurately weighed into a 4 ml clear glass vial followed by the addition of 2.5 ml buffer (at different pH) to the vial. The vial was then mounted on a Thermomixer and kept shaking for 24 hours at 25° C. The solution was filtered through 0.45 μm PTFE filter. The pH value and concentration of the filtrate were checked by pH meter and HPLC, respectively.
as §1, with “Specifically,” for “The aqueous solubility of the dimethylsulfoxide solvate of darunavir of the present invention was measured. Specifically,”, “respectively. The results are summarized in Table 11 and in FIG. 8 panel C.” for “respectively.”

[5] = pH 1.2 buffer, footnote *degraded
[6] = listed as tetrahydrofuran solvate form
[7] = listed as dimethylsulfoxide solvate form

CC(C)CN(C[C@@H](O)[C@H](Cc1ccccc1)NC(=O)O[C@H]1CO[C@H]2OCC[C@H]21)S(=O)(=O)c1ccc(N)cc1 [[(1S,2R)-3-[[(4-aminophenyl)sulfonyl](2-methylpropyl)amino]-2-hydroxy-1-(phenylmethyl)propyl]-carbamic acid (3R,3aS,6aR)-hexahydrofuro[2,3-b]furan-3-yl ester]
D10 ([1]; listed as Micronized): 1.5 μm | D50 ([1]; listed as Micronized): 3.7 μm | D90 ([1]; listed as Micronized): 7.2 μm | Specific surface area ([1]; listed as Micronized): 2.6 m^2/g | Surface weighted mean ([1]; listed as Micronized): 2.3 μm | Vol. weighted mean ([1]; listed as Micronized): 4.1 μm | Dissolution (15 min, 600 mg/vessel, 75 rpm, 900 mL 2.0% Tween-20 in 0.05M sodium phosphate buffer pH 3.0, 37° C., listed as Micronized): 89.30% | Dissolution (30 min, same medium, listed as Micronized): 94.72% | Dissolution (45 min, same medium, listed as Micronized): 95.98% | Dissolution (60 min, same medium, listed as Micronized): 94.95%

CC(C)CN(C[C@@H](O)[C@H](Cc1ccccc1)NC(=O)O[C@H]1CO[C@H]2OCC[C@H]21)S(=O)(=O)c1ccc(N)cc1 [darunavir ethanolate, [(1S,2R)-3-[[(4-aminophenyl)sulfonyl](2-methylpropyl)amino]-2-hydroxy-1-(phenylmethyl)propyl]-carbamic acid (3R,3aS,6aR)-hexahydrofuro[2,3-b]furan-3-yl ester, reference compound]
solubility in water [2]: approximately 0.15 mg/mL | weight gain from 0% to 90% (DVS) [3]: 2.180% | hygroscopicity (in words) [3]: hygroscopic | loss of solvate during the desorption measurement ([3]; DVS desorption): lost the solvate ethanol molecules | bulk density (Bulk density; known ethanolate form, comparator): 0.374 ± 0.009 g/mL

CC(C)CN(C[C@@H](O)[C@H](Cc1ccccc1)NC(=O)O[C@H]1CO[C@H]2OCC[C@H]21)S(=O)(=O)c1ccc(N)cc1 [amorphous darunavir, [(1S,2R)-3-[[(4-aminophenyl)sulfonyl](2-methylpropyl)amino]-2-hydroxy-1-(phenylmethyl)propyl]-carbamic acid (3R,3aS,6aR)-hexahydrofuro[2,3-b]furan-3-yl ester]
Solubility [4, 5]: 1.73* mg/ml | Solubility ([4]; pH 4.5 buffer): 0.27 mg/mL (≈ 493 µM) | Solubility ([4]; pH 6.8 buffer): 0.24 mg/mL (≈ 438 µM) | Solubility ([4]; pH 7.4 buffer): 0.23 mg/mL (≈ 420 µM) | Solubility ([4]; water): 0.27 mg/mL (≈ 493 µM) | weight gain from 0% to 90% (DVS) [3]: 2.617% | hygroscopicity (in words) [3]: hygroscopic | bulk density (Bulk density): 0.445 ± 0.012 g/mL

CC(C)CN(C[C@@H](O)[C@H](Cc1ccccc1)NC(=O)O[C@H]1CO[C@H]2OCC[C@H]21)S(=O)(=O)c1ccc(N)cc1 [darunavir tetrahydrofuran solvate, [(1S,2R)-3-[[(4-aminophenyl)sulfonyl](2-methylpropyl)amino]-2-hydroxy-1-(phenylmethyl)propyl]-carbamic acid (3R,3aS,6aR)-hexahydrofuro[2,3-b]furan-3-yl ester]
solubility at 24 h ([4]; pH 1.2 buffer, pH 1.2, simulated gastric fluid, footnote *degraded): 1470 µg/mL | solubility at 24 h ([4]; pH 4.5 buffer, pH 4.5, aqueous buffer): 270 µg/mL | solubility at 24 h ([4]; pH 6.8 buffer, pH 6.8, aqueous buffer): 240 µg/mL | solubility at 24 h ([4]; pH 7.4 buffer, pH 7.4, aqueous buffer): 230 µg/mL | solubility at 24 h ([4]; water): 270 µg/mL | weight gain from 0% to 90% (DVS) [3]: 1.366% | weight gain from 0% to 90% (DVS) [3, 6]: 1.366% | hygroscopicity (in words) [3]: only slightly hygroscopic | hygroscopicity (in words) [3, 6]: slightly hygroscopic | bulk density (Bulk density): 0.431 ± 0.007 g/mL

CC(C)CN(C[C@@H](O)[C@H](Cc1ccccc1)NC(=O)O[C@H]1CO[C@H]2OCC[C@H]21)S(=O)(=O)c1ccc(N)cc1 [darunavir dimethylsulfoxide solvate, [(1S,2R)-3-[[(4-aminophenyl)sulfonyl](2-methylpropyl)amino]-2-hydroxy-1-(phenylmethyl)propyl]-carbamic acid (3R,3aS,6aR)-hexahydrofuro[2,3-b]furan-3-yl ester]
Solubility [4, 5]: 1.36* mg/ml | Solubility ([4]; pH 4.5 buffer): 0.22 mg/mL | Solubility ([4]; pH 6.8 buffer): 0.21 mg/mL | Solubility ([4]; pH 7.4 buffer): 0.20 mg/mL | Solubility ([4]; water): 0.23 mg/mL | D10 ([1]; listed as Non-micronized): 3.9 μm | D50 ([1]; listed as Non-micronized): 29.2 μm | D90 ([1]; listed as Non-micronized): 99.7 μm | Specific surface area ([1]; listed as Non-micronized): 0.9 m^2/g | Surface weighted mean ([1]; listed as Non-micronized): 6.5 μm | Vol. weighted mean ([1]; listed as Non-micronized): 42.0 μm | Dissolution (15 min, 600 mg/vessel, 75 rpm, 900 mL 2.0% Tween-20 in 0.05M sodium phosphate buffer pH 3.0, 37° C., listed as Non-micronized): 56.83% | Dissolution (30 min, same medium, listed as Non-micronized): 81.61% | Dissolution (45 min, same medium, listed as Non-micronized): 88.06% | Dissolution (60 min, same medium, listed as Non-micronized): 90.45% | weight gain from 0% to 90% (DVS) [3]: 0.9431% | weight gain from 0% to 90% (DVS) [3, 7]: 0.9431% | hygroscopicity (in words) [3]: only slightly hygroscopic | hygroscopicity (in words) [3, 7]: only slightly hygroscopic | bulk density (Bulk density): 0.472 ± 0.008 g/mL | denser when compared to the bulk density of the known ethanolate form (Bulk density): approximately 26%
